Like-named read-outs stand apart in the source and are kept apart here.
Experiments:
[1] = molecular target: Beta Secretase enzyme (BACE) (Homo sapiens, UniProt P56817); assay: In vitro enzymatic BACE FRET (fluorescence resonance energy transfer) assay; assay type: biochemical; conditions: average IC50, enzyme assay; read-out: BACE 1 FRET assay
Procedure, shortened: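 Run in 0.05 M acetate pH 4.2 with 10% DMSO final and 100 uM genapol; started by adding 50 nM FRET peptide substrate (fluorophore and quencher flanking the cleavage site), incubated one hour, then stopped with Tris to neutral pH before reading fluorescence.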

[2] = test system: Aβ40 in conditioned medium of cells stably expressing Amyloid Precursor Protein (APP); assay: In vitro BACE cell-based assay (Aβ40 in conditioned medium, sandwich ELISA); conditions: Homo sapiens, read-out: HEK cell assay
Procedure: In Vitro BACE Cell-Based Assay
The cell-based assay measures inhibition or reduction of Aβ40 in conditioned medium of test compound treated cells expressing amyloid precursor protein.
Cells stably expressing Amyloid Precursor Protein (APP) were plated at a density of 40K cells/well in 96 well plates (Costar). The cells were cultivated for 24 hours at 37° C. and 5% CO2 in DMEM supplemented with 10% FBS. The test compounds were then added to cells in 10-point dose response concentrations with the starting concentration being either 100 μM or 10 μM. The compounds were diluted from stock solutions in DMSO and the final DMSO concentration of the test compounds on cells was 0.1%. […] The IC50 of the compound was calculated from the percent of control or percent inhibition of Aβ 40 as a function of the concentration of the test compound.
The sandwich ELISA to detect Aβ 40 was performed in 96 well microtiter plates, which were pre-treated with goat anti-rabbit IgG (Pierce). The capture and detecting antibody pair that were used to detect Aβ 40 from cell supernatants were affinity purified pAb40 (Biosource) and biotinylated 6E10 (Signet Labs Inc.), respectively. The optimal concentration for the pAb40 antibody was 3 μg/ml in Superblock/TBS (Pierce) that was supplemented with 0.05% Tween 20 (Sigma).
Cellular supernatants were incubated with the capture antibody for 3 h at 4° C., followed by 3 wash steps in TBS-tween (0.05%). The detecting antibody incubation was for 2 h at 4° C., again followed by the wash steps as described previously. The final readout of the ELISA is Time-Resolved Fluorescence (counts per minute) using Delfia reagents Streptavidin-Europium and Enhancement solutions (Perkin Elmer) and the Victor 2 multilabel counter (Perkin Elmer).

[3] = HEK293, average IC50, HEK cells

Beta Secretase enzyme (BACE), sequence (P56817 46-501, species assumed): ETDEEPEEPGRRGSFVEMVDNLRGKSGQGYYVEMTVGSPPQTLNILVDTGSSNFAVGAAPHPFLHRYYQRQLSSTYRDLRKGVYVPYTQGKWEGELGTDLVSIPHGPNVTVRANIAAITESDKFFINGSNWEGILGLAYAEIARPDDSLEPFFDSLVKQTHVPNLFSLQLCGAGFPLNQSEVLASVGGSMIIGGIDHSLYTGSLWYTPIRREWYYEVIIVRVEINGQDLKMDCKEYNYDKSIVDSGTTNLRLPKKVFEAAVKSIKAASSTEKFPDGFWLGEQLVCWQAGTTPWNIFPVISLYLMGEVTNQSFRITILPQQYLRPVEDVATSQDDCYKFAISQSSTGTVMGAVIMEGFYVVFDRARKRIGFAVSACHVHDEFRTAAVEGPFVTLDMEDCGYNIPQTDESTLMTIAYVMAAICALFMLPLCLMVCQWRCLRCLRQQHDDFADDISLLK

SMILES | IC50 [1] | IC50 [2, 3] | IC50 ([2]; HEK293, average IC50)
CC(C)(C)COc1cc2c(cn1)Oc1ccc(-c3cccnc3F)cc1C21COC(N)=N1 (centres unmarked) [Example 102, 7-(2-fluoropyridin-3-yl)-3-(neopentyloxy)-5′H-spiro[chromeno[2,3-c]pyridine-5,4′-oxazol]-2′-amine 2,2,2-trifluoroacetate] | 1.1 nM | 26.2 nM | –
CC1(C#Cc2cnc3c(c2)[C@]2(COC(N)=N2)c2cc(-c4cnccc4F)ccc2O3)COC1 [Example 104, (S)-7-(4-fluoropyridin-3-yl)-3-((3-methyloxetan-3-yl)ethynyl)-5′H-spiro[chromeno[2,3-b]pyridine-5,4′-oxazol]-2′-amine] | 1.1 nM | – | 12 nM
NC1=NC2(CO1)c1cc(-c3cccnc3F)ccc1Oc1c(F)cc(C3=CCOCC3)nc12 (centres unmarked) [Example 105, 2-(3,6-dihydro-2H-pyran-4-yl)-4-fluoro-8-(2-fluoropyridin-3-yl)-5′H-spiro[chromeno[3,2-b]pyridine-10,4′-oxazol]-2′-amine] | 3.5 nM | 14.4 nM | –
NC1=N[C@@]2(CO1)c1cc(-c3cccnc3)ccc1Oc1c2cc(-c2cccnc2)[nH]c1=O [Example 107, (S)-2′-amino-3,7-di(pyridin-3-yl)-5′H-spiro[chromeno[2,3-c]pyridine-5,4′-oxazol]-1(2H)-one] | 7.7 nM | 180 nM | –
NC1=N[C@@]2(CC1(F)F)c1cc(-c3cccnc3)ccc1Oc1ncc(-c3cccnc3)cc12 [Example 112, (5S)-4′,4′-difluoro-3,7-di-3-pyridinyl-3′,4′-dihydrospiro[chromeno[2,3-b]pyridine-5,2′-pyrrol]-5′-amine] | 63.2 nM | – | 2160 nM
Cc1ccc(-c2cc(F)c3c(c2)[C@]2(COC(N)=N2)c2cc(-c4cccnc4F)ccc2O3)nn1 [Example 114, (S)-4′-fluoro-7′-(2-fluoropyridin-3-yl)-2′-(6-methylpyridazin-3-yl)-5H-spiro[oxazole-4,9′-xanthen]-2-amine] | 0.5 nM | – | 4 nM
NC1=N[C@@]2(CO1)c1cc(-c3cccnc3F)ccc1Oc1c2cc(C2=CCOCC2)nc1F [Example 130, (S)-3-(3,6-dihydro-2H-pyran-4-yl)-1-fluoro-7-(2-fluoropyridin-3-yl)-5′H-spiro[chromeno[2,3-c]pyridine-5,4′-oxazol]-2′-amine] | 0.4 nM | 2.1 nM | –
Cc1cncc(-c2ccc3c(c2)[C@@]2(COC(N)=N2)c2cc(-c4ccnc(C#N)c4)ncc2O3)c1 [Example 141, 4-((5S)-2′-amino-7-(5-methyl-3-pyridinyl)spiro[chromeno[2,3-c]pyridine-5,4′-[1,3]oxazol]-3-yl)-2-pyridinecarbonitrile] | 17.4 nM | – | 114 nM
NC1=N[C@@]2(CO1)c1cc(-c3ccccc3)ccc1Oc1cnc(-c3ccccc3)cc12 [Example 142, (5S)-3,7-diphenylspiro[chromeno[2,3-c]pyridine-5,4′-[1,3]oxazol]-2′-amine] | 15.8 nM | – | 532 nM
N#Cc1cccc(-c2ccc3c(c2)[C@@]2(COC(N)=N2)c2cc(C4=CCOCC4)ncc2O3)c1 [Example 143, 3-((5S)-2′-amino-3-(3,6-dihydro-2H-pyran-4-yl)spiro[chromeno[2,3-c]pyridine-5,4′-[1,3]oxazol]-7-yl)benzonitrile] | 1.1 nM | – | 9.4 nM
COc1cncc(-c2ccc3c(c2)[C@@]2(COC(N)=N2)c2cc(C4=CCOCC4)ncc2O3)c1 [Example 144, (5S)-3-(3,6-dihydro-2H-pyran-4-yl)-7-(5-methoxy-3-pyridinyl)spiro[chromeno[2,3-c]pyridine-5,4′-[1,3]oxazol]-2′-amine] | 1.6 nM | – | 8.8 nM
NC1=N[C@@]2(CO1)c1cc(-c3cccc(C(F)(F)F)c3)ccc1Oc1cnc(C3=CCOCC3)cc12 [Example 145, (5S)-3-(3,6-dihydro-2H-pyran-4-yl)-7-(3-(trifluoromethyl)phenyl)spiro[chromeno[2,3-c]pyridine-5,4′-[1,3]oxazol]-2′-amine] | 2.2 nM | – | 81.9 nM
C[Si](C)(C)c1cc2c(nc1F)Oc1ccc(-c3cccnc3F)cc1[C@@]21COC(N)=N1 [Example 146, (5S)-2-fluoro-7-(2-fluoro-3-pyridinyl)-3-(trimethylsilyl)spiro[chromeno[2,3-b]pyridine-5,4′-[1,3]oxazol]-2′-amine] | 12.3 nM | – | 169 nM
NC1=NC2(CO1)c1cc(-c3cccnc3F)ccc1Oc1nc(F)c(-c3cccnc3F)cc12 (centres unmarked) [Example 147, 2-fluoro-3,7-bis(2-fluoro-3-pyridinyl)spiro[chromeno[2,3-b]pyridine-5,4′-[1,3]oxazol]-2′-amine] | 22.3 nM | – | 124 nM
CC(C)(C)C#Cc1cc2c(nc1F)Oc1ccc(-c3cccnc3F)cc1C21COC(N)=N1 (centres unmarked) [Example 148, 3-(3,3-dimethyl-1-butyn-1-yl)-2-fluoro-7-(2-fluoro-3-pyridinyl)spiro[chromeno[2,3-b]pyridine-5,4′-[1,3]oxazol]-2′-amine] | 0.7 nM | – | 21.4 nM
CC1(C#Cc2cc3c(nc2F)Oc2ccc(-c4cccnc4F)cc2C32COC(N)=N2)COC1 (centres unmarked) [Example 149, 2-fluoro-7-(2-fluoro-3-pyridinyl)-3-((3-methyl-3-oxetanyl)ethynyl)spiro[chromeno[2,3-b]pyridine-5,4′-[1,3]oxazol]-2′-amine] | 0.8 nM | – | 7.6 nM
NC1=NC2(CO1)c1cc(-c3cccnc3F)ccc1Oc1nc(F)c(C3=CCOCC3)cc12 (centres unmarked) [Example 150, 3-(3,6-dihydro-2H-pyran-4-yl)-2-fluoro-7-(2-fluoro-3-pyridinyl)spiro[chromeno[2,3-b]pyridine-5,4′-[1,3]oxazol]-2′-amine] | 2.6 nM | – | 48.2 nM
NC1=NC2(CO1)c1cc(-c3cccnc3F)ccc1Oc1nc(F)c(-c3ccnc(F)c3)cc12 (centres unmarked) [Example 151, 2-fluoro-7-(2-fluoro-3-pyridinyl)-3-(2-fluoro-4-pyridinyl)spiro[chromeno[2,3-b]pyridine-5,4′-[1,3]oxazol]-2′-amine] | 1.3 nM | – | 50.8 nM
CC1(C#Cc2cc3c(cn2)Oc2ccc(-c4cncc(F)c4)cc2[C@@]32COC(N)=N2)COC1 [Example 153, (5S)-7-(5-fluoro-3-pyridinyl)-3-((3-methyl-3-oxetanyl)ethynyl)spiro[chromeno[2,3-c]pyridine-5,4′-[1,3]oxazol]-2′-amine] | 9.2 nM | – | 46.2 nM
CC1(C#Cc2cc3c(cn2)Oc2ccc(-c4cccnc4)cc2[C@@]32COC(N)=N2)COC1 [Example 154, (5S)-3-((3-methyl-3-oxetanyl)ethynyl)-7-(3-pyridinyl)spiro[chromeno[2,3-c]pyridine-5,4′-[1,3]oxazol]-2′-amine] | 1.4 nM | – | 6.5 nM
CC1(C#Cc2cc3c(cn2)Oc2ccc(-c4ccccc4)cc2[C@@]32COC(N)=N2)COC1 [Example 155, (5S)-3-((3-methyl-3-oxetanyl)ethynyl)-7-phenylspiro[chromeno[2,3-c]pyridine-5,4′-[1,3]oxazol]-2′-amine] | 17.3 nM | – | 173 nM
CC1(C#Cc2cc3c(cn2)Oc2ccc(-c4ccc(F)nc4)cc2[C@@]32COC(N)=N2)COC1 [Example 156, (5S)-7-(6-fluoro-3-pyridinyl)-3-((3-methyl-3-oxetanyl)ethynyl)spiro[chromeno[2,3-c]pyridine-5,4′-[1,3]oxazol]-2′-amine] | 10.9 nM | – | 45.9 nM

Source: patent US8883782B2, “Spiro-tetracyclic ring compounds as beta-secretase modulators and methods of use” (Amgen Inc., priority 2010, dated 2014)
